# Earlier results, collected in patent US7807833B2, “Method for total synthesis of ecteinascidins and intermediate compounds thereof” (Japan Science and Technology Agency, priority 2002, dated 2010).
# Tested on: cancer cells
"IC50 (background statement, cell lines not named, read-out: IC50, depressing the proliferation of cancer cells)",Compound,"times more potent than Toxol, Camptotesin, Adriamycin or Mitomycin in depressing the proliferation of cancer cells (relative to currently used carcinostatic agents)",antineoplastic activity compared with ET 743 (qualitative background statement)
0.1 to 1 nM,"COc1cc2c(cc1O)CCN[C@]21CS[C@@H]2c3c(OC(C)=O)c(C)c4c(c3[C@H](COC1=O)N1[C@@H]2[C@H]2c3c(cc(C)c(OC)c3O)C[C@@H]([C@@H]1O)N2C)OCO4 [Et 743, ecteinascidin 743]",10 to 100 times,
,COc1c(C)cc2c(c1O)[C@@H]1[C@@H]3Cc4c(OC(C)=O)c(C)c5c(c4[C@H](CN4C(=O)c6ccccc6C4=O)N3[C@@H](C#N)[C@H](C2)N1C)OCO5 [phthalascidin],,same activity to ET 743
